Tested on: adult patients with persistent negative symptoms of schizophrenia
Assay type: in vivo, human
From the text: To assess changes in cognitive impairment associated with schizophrenia (CIAS), secondary endpoints included the 12-week change from baseline in the Brief Assessment of Cognition in Schizophrenia (BACS) composite score, a measure of cognition across multiple domains, and the Schizophrenia Cognition Rating Scale (SCORS) score, a measure of day-to-day cognitive functioning requiring input from an adult informant. Secondary endpoints were not corrected for multiplicity.
The BACS is specifically designed to measure treatment-related improvements in cognition and includes alternate forms. BACS is a reliable and sensitive measure of cognitive function in schizophrenia. The BACS is a cognition assessment battery that assesses 6 domains of cognitive function found to be consistently impaired in schizophrenia: verbal memory; working memory; motor speed; attention; executive functions; and verbal fluency. The primary measure from each test of the BACS is standardized by creating T-scores whereby the mean of the test session of a matched reference healthy participant is set to 50 and the standard deviation set to 10.

[1] = 50 mg once daily, MMRM, preliminary analysis
[2] = 50 mg once daily, preliminary analysis

**Q.** What does the source list for `O=c1[nH]nc(CCc2ccc(C(F)(F)F)cc2)cc1O` [Compound (I), luvadaxistat]?
**A.** BACS composite score, effect size versus placebo (50 mg once daily, 12 weeks, p=0.031, not corrected for multiplicity): 0.4; BACS Verbal Memory Cognition Domain, Difference from Placebo for Week 12, LS Mean (SE) (50 mg once daily, MMRM, one-sided unadjusted p 0.038, preliminary analysis): 2.6 (1.43); BACS Composite Score, Difference from Placebo for Week 12, LS Mean (SE) (50 mg once daily, MMRM, one-sided unadjusted p 0.046, preliminary analysis): 1.9 (1.15); BACS Verbal Memory Cognition Domain, Difference from Placebo for Week 6, LS Mean (SE) (50 mg once daily, MMRM, one-sided unadjusted p 0.071, preliminary analysis): 1.9 (1.29); BACS Composite Score, Difference from Placebo for Week 6, LS Mean (SE) (50 mg once daily, MMRM, one-sided unadjusted p 0.096, preliminary analysis): 1.3 (1.01); BACS Motor Speed Cognition Domain, Difference from Placebo for Week 12, LS Mean (SE) (50 mg once daily, MMRM, one-sided unadjusted p 0.101, preliminary analysis): 1.5 (1.17); BACS Working Memory Cognition Domain, Difference from Placebo for Week 12, LS Mean (SE) (50 mg once daily, MMRM, one-sided unadjusted p 0.413, preliminary analysis): 0.3 (1.34); BACS Motor Speed Cognition Domain, Difference from Placebo for Week 6, LS Mean (SE) (50 mg once daily, MMRM, one-sided unadjusted p 0.440, preliminary analysis): 0.2 (1.26); BACS Working Memory Cognition Domain, Difference from Placebo for Week 6, LS Mean (SE) (50 mg once daily, MMRM, one-sided unadjusted p 0.507, preliminary analysis): 0.0 (1.15); BACS Composite Score, Adjusted Change from Baseline to Week 6, LS Mean (SE) [1]: 0.9 (0.81); BACS Composite Score, Adjusted Change from Baseline to Week 12, LS Mean (SE) [1]: 2.7 (0.92); BACS Motor Speed Cognition Domain, Adjusted Change from Baseline to Week 6, LS Mean (SE) [1]: 0.1 (1.00); BACS Motor Speed Cognition Domain, Adjusted Change from Baseline to Week 12, LS Mean (SE) [1]: 1.0 (0.93); BACS Verbal Memory Cognition Domain, Adjusted Change from Baseline to Week 6, LS Mean (SE) [1]: 0.6 (1.04); BACS Verbal Memory Cognition Domain, Adjusted Change from Baseline to Week 12, LS Mean (SE) [1]: 1.9 (1.13); BACS Working Memory Cognition Domain, Adjusted Change from Baseline to Week 6, LS Mean (SE) [1]: 0.0 (0.92); BACS Working Memory Cognition Domain, Adjusted Change from Baseline to Week 12, LS Mean (SE) [1]: 0.9 (1.06); BACS composite score, 12-week LS mean change from baseline (50 mg once daily, placebo 2.3): 4.6; BACS Composite Score, Change from Baseline to Week 6, Mean (SD) [2]: 1.7 (5.81); BACS Composite Score, Change from Baseline to Week 6, Median [2]: 2.0; BACS Composite Score, Change from Baseline to Week 12, Mean (SD) [2]: 3.8 (5.91); BACS Composite Score, Change from Baseline to Week 12, Median [2]: 3.0; BACS Composite Score, Week 6, Mean (SD) [2]: 35.4 (14.53); BACS Composite Score, Week 6, Median [2]: 34.0; BACS Composite Score, Week 12, Mean (SD) [2]: 37.7 (13.30); BACS Composite Score, Week 12, Median [2]: 37.5; BACS Motor Speed Cognition Domain, Change from Baseline to Week 6, Mean (SD) [2]: 1.7 (5.73); BACS Motor Speed Cognition Domain, Change from Baseline to Week 6, Median [2]: 1.0; BACS Motor Speed Cognition Domain, Change from Baseline to Week 12, Mean (SD) [2]: 2.6 (6.80); BACS Motor Speed Cognition Domain, Change from Baseline to Week 12, Median [2]: 1.0; BACS Motor Speed Cognition Domain, Week 6, Mean (SD) [2]: 40.6 (13.61); BACS Motor Speed Cognition Domain, Week 6, Median [2]: 40.0; BACS Motor Speed Cognition Domain, Week 12, Mean (SD) [2]: 42.0 (12.93); BACS Motor Speed Cognition Domain, Week 12, Median [2]: 41.5; BACS Verbal Memory Cognition Domain, Change from Baseline to Week 6, Mean (SD) [2]: 1.6 (7.40); BACS Verbal Memory Cognition Domain, Change from Baseline to Week 6, Median [2]: 0.0; BACS Verbal Memory Cognition Domain, Change from Baseline to Week 12, Mean (SD) [2]: 3.2 (7.87); BACS Verbal Memory Cognition Domain, Change from Baseline to Week 12, Median [2]: 4.0; BACS Verbal Memory Cognition Domain, Week 6, Mean (SD) [2]: 41.7 (11.59); BACS Verbal Memory Cognition Domain, Week 6, Median [2]: 44.5; BACS Verbal Memory Cognition Domain, Week 12, Mean (SD) [2]: 42.9 (12.41); BACS Verbal Memory Cognition Domain, Week 12, Median [2]: 43.5; BACS Working Memory Cognition Domain, Change from Baseline to Week 6, Mean (SD) [2]: 1.0 (6.60); BACS Working Memory Cognition Domain, Change from Baseline to Week 6, Median [2]: 0.0; BACS Working Memory Cognition Domain, Change from Baseline to Week 12, Mean (SD) [2]: 2.1 (6.61); BACS Working Memory Cognition Domain, Change from Baseline to Week 12, Median [2]: 1.0; BACS Working Memory Cognition Domain, Week 6, Mean (SD) [2]: 40.8 (14.10); BACS Working Memory Cognition Domain, Week 6, Median [2]: 42.0; BACS Working Memory Cognition Domain, Week 12, Mean (SD) [2]: 42.0 (13.95); BACS Working Memory Cognition Domain, Week 12, Median [2]: 42.5; BACS Attention Cognition Domain, Change from Baseline to Week 6, Mean (SD) (50 mg, Week 6): 0.9 (7.74); BACS Attention Cognition Domain, Change from Baseline to Week 6, Median (50 mg, Week 6): 0.0; BACS Attention Cognition Domain, Week 6, Mean (SD) (50 mg, Week 6): 36.0 (14.78); BACS Attention Cognition Domain, Week 6, Median (50 mg, Week 6): 34.0; BACS Executive Functions Cognition Domain, Change from Baseline to Week 6, Mean (SD) (50 mg, Week 6): 1.6 (10.55); BACS Executive Functions Cognition Domain, Change from Baseline to Week 6, Median (50 mg, Week 6): 2.0; BACS Executive Functions Cognition Domain, Week 6, Mean (SD) (50 mg, Week 6): 44.9 (11.66); BACS Executive Functions Cognition Domain, Week 6, Median (50 mg, Week 6): 48.5; BACS Verbal Fluency Cognition Domain, Change from Baseline to Week 6, Mean (SD) (50 mg, Week 6): −0.2 (5.57); BACS Verbal Fluency Cognition Domain, Change from Baseline to Week 6, Median (50 mg, Week 6): 0.0; BACS Verbal Fluency Cognition Domain, Week 6, Mean (SD) (50 mg, Week 6): 39.9 (10.86); BACS Verbal Fluency Cognition Domain, Week 6, Median (50 mg, Week 6): 38.0; BACS Attention Cognition Domain, Adjusted Change from Baseline to Week 6, LS Mean (SE) (50 mg, Week 6, MMRM): 1.0 (0.90)
